Assay [1] addresses Gonadotropin-releasing hormone receptor (Canis familiaris). Description: In vitro inhibition of binding to gonadotropin-releasing hormone receptor in dog.
In assay [2] the target is Gonadotropin-releasing hormone receptor (Macaca mulatta). Description: Functional antagonism at the rhesus monkey gonadotropin-releasing hormone receptor.
Assay [3] has the same target. Description: In vitro inhibition of gonadotropin-releasing hormone receptor in rhesus monkey.
The target of assay [4] is Gonadotropin-releasing hormone receptor (Canis familiaris). Description: Functional antagonism at gonadotropin-releasing hormone receptor in dog (PI turnover).

As a reminder, the IC50 is the concentration at which inhibition is half-maximal.

For `Cc1cc(-c2c(OCC[C@@H]3CCN3)c3cc(C(=O)Nc4ccncn4)c(Cl)cc3[nH]c2=O)cc(C)c1C` [4-(2-Azetidin-2-yl-ethoxy)-7-chloro-2-oxo-3-(3,4,5-trimethyl-phenyl)-1,2-dihydro-quinoline-6-carboxylic acid pyrimidin-4-ylamide], the IC50 in assay [1] turned out to be 60 nM; in assay [2], 7 nM; in assay [3] it was 0.5 nM; in assay [4], 350 nM.
